From article PMC9964023 (Marine Drugs, 2023)
Entries after “also recorded” stand apart in the source; their conditions may differ. Bridge positions count the residues as written; N and C are the ends. Peptide text beside a SMILES is read from it.

What was measured:
Experiment in all cases: biochemical
[1] = target: T1, norepinephrine transporter (NET) (Rattus norvegicus, UniProt Q63380); type: biochemical
T1 construct: brains were processed to yield synaptosomes as previously described; from tissue; host or cells: rat whole brain minus caudate and cerebellum, synaptosomes
T1 sequence (Q63380 1-617): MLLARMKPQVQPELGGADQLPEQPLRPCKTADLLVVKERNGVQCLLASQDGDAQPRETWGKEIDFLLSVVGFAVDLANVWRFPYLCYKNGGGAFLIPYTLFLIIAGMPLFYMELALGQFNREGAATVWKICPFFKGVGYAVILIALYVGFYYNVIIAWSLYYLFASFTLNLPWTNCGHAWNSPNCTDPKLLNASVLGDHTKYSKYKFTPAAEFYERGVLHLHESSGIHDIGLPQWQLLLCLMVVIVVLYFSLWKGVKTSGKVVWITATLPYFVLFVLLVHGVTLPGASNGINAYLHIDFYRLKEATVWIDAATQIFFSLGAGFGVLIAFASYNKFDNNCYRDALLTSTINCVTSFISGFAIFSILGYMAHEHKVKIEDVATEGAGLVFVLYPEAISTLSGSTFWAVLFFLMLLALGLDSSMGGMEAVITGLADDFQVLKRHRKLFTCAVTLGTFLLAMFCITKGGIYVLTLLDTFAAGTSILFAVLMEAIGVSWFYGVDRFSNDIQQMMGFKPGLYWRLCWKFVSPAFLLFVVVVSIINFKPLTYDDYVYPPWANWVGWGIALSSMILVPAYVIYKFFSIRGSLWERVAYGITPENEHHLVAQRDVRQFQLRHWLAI

[2] = target: T2, serotonin transporter (SERT) (Rattus norvegicus, UniProt P31652)
T2 construct: brains were processed to yield synaptosomes as previously described; from tissue; host or cells: rat whole brain minus caudate and cerebellum, synaptosomes
T2 sequence (P31652 whole entry): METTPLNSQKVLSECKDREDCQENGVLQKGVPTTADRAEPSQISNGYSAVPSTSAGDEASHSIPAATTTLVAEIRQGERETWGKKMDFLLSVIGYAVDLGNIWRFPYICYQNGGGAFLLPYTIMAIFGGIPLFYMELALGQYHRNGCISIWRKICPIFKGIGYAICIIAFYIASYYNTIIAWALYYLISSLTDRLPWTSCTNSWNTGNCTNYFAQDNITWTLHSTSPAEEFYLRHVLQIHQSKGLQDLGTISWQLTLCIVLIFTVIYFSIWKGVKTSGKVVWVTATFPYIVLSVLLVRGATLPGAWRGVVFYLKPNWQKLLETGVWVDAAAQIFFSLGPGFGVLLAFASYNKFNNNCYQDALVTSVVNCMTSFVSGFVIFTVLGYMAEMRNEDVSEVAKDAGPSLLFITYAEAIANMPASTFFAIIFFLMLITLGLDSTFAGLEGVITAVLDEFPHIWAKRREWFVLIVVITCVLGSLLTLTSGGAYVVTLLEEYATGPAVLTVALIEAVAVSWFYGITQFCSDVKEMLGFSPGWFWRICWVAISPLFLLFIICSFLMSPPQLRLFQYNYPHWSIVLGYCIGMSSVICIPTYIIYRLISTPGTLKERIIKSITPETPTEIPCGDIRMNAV

[3] = target: T3, dopamine transporter (DAT) (Rattus norvegicus, UniProt P23977)
T3 construct: brains were processed to yield synaptosomes as previously described; from tissue; host or cells: rat caudate synaptosomes
T3 sequence (P23977 whole entry): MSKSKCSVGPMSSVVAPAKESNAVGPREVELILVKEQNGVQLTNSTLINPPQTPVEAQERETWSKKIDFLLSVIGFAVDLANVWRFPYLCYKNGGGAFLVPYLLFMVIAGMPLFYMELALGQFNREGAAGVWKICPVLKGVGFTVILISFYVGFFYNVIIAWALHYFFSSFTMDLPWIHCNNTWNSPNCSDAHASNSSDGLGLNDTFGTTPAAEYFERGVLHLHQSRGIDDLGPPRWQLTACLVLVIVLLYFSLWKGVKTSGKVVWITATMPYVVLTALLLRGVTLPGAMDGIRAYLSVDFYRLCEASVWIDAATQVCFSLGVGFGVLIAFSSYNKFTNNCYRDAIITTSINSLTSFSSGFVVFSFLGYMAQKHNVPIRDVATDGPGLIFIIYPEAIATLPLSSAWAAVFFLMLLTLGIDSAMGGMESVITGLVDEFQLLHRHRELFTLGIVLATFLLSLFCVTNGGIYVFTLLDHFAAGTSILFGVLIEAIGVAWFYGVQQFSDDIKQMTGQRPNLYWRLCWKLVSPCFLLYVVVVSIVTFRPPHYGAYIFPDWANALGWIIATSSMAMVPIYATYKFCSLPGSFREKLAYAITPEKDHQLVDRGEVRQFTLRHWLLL

In the case of `CSCC[C@@H]1NC(=O)[C@H](CCCNC(=N)N)NC(=O)[C@H](Cc2ccc(O)cc2)NC(=O)CNC(=O)[C@@H]2CSSC[C@H](NC1=O)C(=O)N[C@@H](C(C)C)C(=O)N1CCC[C@H]1C(=O)N[C@H](C(N)=O)CSSC[C@H](NC(=O)[C@@H](NC(=O)[C@@H](N)CO)[C@@H](C)O)C(=O)N2` [PnID B] (H-STCCGYRMCVPC-NH2; disulfide 3-12, 4-9), the IC50 [1] is reported as 10 µM.

`CSCC[C@@H]1NC(=O)[C@H](CCCNC(=N)N)NC(=O)[C@H](Cc2ccc(O)cc2)NC(=O)CNC(=O)[C@@H]2CSSC[C@@H](C(N)=O)NC(=O)[C@@H]3CCCN3C(=O)[C@H](C(C)C)NC(=O)[C@H](CSSC[C@H](NC(=O)[C@@H](NC(=O)[C@@H](N)CO)[C@@H](C)O)C(=O)N2)NC1=O` [PnID A] (H-STCCGYRMCVPC-NH2; disulfide 3-9, 4-12) was tested, and the IC50 [2] was over 100 µM, the IC50 [1] was over 100 µM and the “activity at NET relative to ribbon isomer (in words)” value [1] was “more than ten times less activity; also recorded: much less active in inhibiting the rat NET”. For the same compound, the IC50 [3] was over 100 µM.
